The results in this text go back to ChEMBL document CHEMBL3867453, “Total Synthesis of (±)-Isoperbergins and Correction of the Chemical Structure of Perbergin” (2016).

In brackets after ≈: the same amount, converted by molar mass.

Common to all, as to assay type: functional
One assay concerns Rhodococcus fascians. The assay can be described thus: Antibacterial activity against Rhodococcus fascians after 24 hrs by MTT based microdilution assay. Particulars: Rhodococcoides fascians.
The subject of assay [1] is Mycolicibacterium smegmatis. The assay can be described thus: Antibacterial activity against Mycobacterium smegmatis after 48 hrs by MTT based microdilution assay.
Another assay has as its system Staphylococcus aureus. The assay can be described thus: Antibacterial activity against Staphylococcus aureus after 24 hrs by MTT based microdilution assay.
In another assay the test system is Pseudomonas aeruginosa. The assay can be described thus: Antibacterial activity against Pseudomonas aeruginosa after 24 hrs by MTT based microdilution assay.
The test system of a further assay is Escherichia coli. In words: Antibacterial activity against Escherichia coli after 24 hrs by MTT based microdilution assay.

Regarding `CN[C@@H]1[C@@H](O[C@H]2O[C@H](CO)[C@@H](N)[C@H](O)[C@H]2O)O[C@H]2C[C@@H](N)[C@@H](O[C@H]3[C@H](O)[C@@H](O)[C@H](N)C[C@@H]3N)O[C@@H]2[C@@H]1O`, the MIC in the assay with Rhodococcus fascians is 50 µg/mL (≈ 92.7 µM); in assay [1], 2.5 µg/mL (≈ 4.63 µM); against Staphylococcus aureus, 30 µg/mL (≈ 55.6 µM); against Pseudomonas aeruginosa, 50 µg/mL (≈ 92.7 µM); against Escherichia coli it was above 50 µg/mL.
Regarding `COc1ccc(C2COc3cc(O)cc(O)c3C2=O)c(O)c1O` (racemic), the MIC (against Rhodococcus fascians; in assay [1]; in the assay with Staphylococcus aureus; against Pseudomonas aeruginosa; against Escherichia coli) was above 50 µg/mL each time.
In the case of `COc1ccc(C2COc3c(C/C=C(\C)CCC=C(C)C)c(O)cc(O)c3C2=O)c(O)c1O` (racemic), the MIC against Rhodococcus fascians is 12.5 µg/mL (≈ 27.5 µM); in assay [1] it was 5 µg/mL (≈ 11 µM); against Staphylococcus aureus it was 5 µg/mL (≈ 11 µM); in the assay on Pseudomonas aeruginosa it was above 50 µg/mL; in the assay with Escherichia coli it was above 50 µg/mL.
For `COc1ccc(C2COc3c(C/C=C(/C)CCC=C(C)C)c(O)cc(O)c3C2=O)c(O)c1O` (racemic), the MIC was 12.5 µg/mL (≈ 27.5 µM) with Rhodococcus fascians; 5 µg/mL (≈ 11 µM) in assay [1]; 5 µg/mL (≈ 11 µM) against Staphylococcus aureus; above 50 µg/mL with Pseudomonas aeruginosa; above 50 µg/mL in the assay on Escherichia coli.
As to `CC1(C)S[C@@H]2[C@H](NC(=O)[C@H](N)c3ccccc3)C(=O)N2[C@H]1C(=O)O` [AMPICILLIN], the MIC against Rhodococcus fascians was 20 µg/mL (≈ 57.2 µM); in assay [1] it was above 50 µg/mL; in the assay on Staphylococcus aureus it was above 50 µg/mL; in the assay with Pseudomonas aeruginosa it was below 5 µg/mL; in the assay on Escherichia coli, below 5 µg/mL.
